{"source": "patent US8673376B2", "about": "“Polyphenol-containing composition for oral administration or external use and use of same” (Biotherapy Development Research Center Co., Ltd., priority 2009, dated 2014)", "key": {"tyrosinase": {"tested_on": "tyrosinase", "assay": "Tyrosinase activity inhibition test", "format": "biochemical", "conditions": "DOPA substrate, control = 100", "protocol": "(§1) The test samples were the freeze-dried products of the hot water extract obtained in Preparation 1 (1) and the fractions eluted with 10% and 50% aqueous ethanol solutions obtained in Preparation 1 (2).\n0.5 mL of substrate (DOPA) solution adjusted to the final concentration of 0.03% with a phosphoric acid buffer was mixed with 0.5 mL of test sample solution prepared using a phosphoric acid buffer, and cooled on ice. 0.5 mL of tyrosinase solution adjusted to the final concentration of 45 U/mL with a phosphoric acid buffer was added to the mixture, incubated at 25° C. for 5 minutes, and then the absorbance at 475 nm was measured. The reaction rate (activity) of tyrosinase was calculated from the difference of the absorbance. In order to eliminate the influence of the color of the test sample, the absorbance of a mixture containing a phosphoric acid buffer in place of the tyrosinase solution was measured, thereby correcting the absorbance."}, "[1]": {"tested_on": "Human melanoma cells (HMVII)", "assay": "Melanin production inhibition test, HMVII cells", "format": "cell-based", "conditions": "control = 100", "description": "Human melanoma cells (HMVII) were the third or higher passage cultured in a culture solution of a Ham F-12 culture medium (manufactured by Nissui Pharmaceutical Co., Ltd.) containing 10% FBS, mixed with 0.5% penicillin-streptomycin (manufactured by Gibco). The test samples were the freeze-dried products of the hot water extract obtained in Preparation 1 (1) and the fractions eluted with 10% and 50% aqueous ethanol solutions obtained in Preparation 1 (2). […] The culture medium was removed, washed with PBS, and then 100 μL of a trypsin EDTA solution was added thereby removing the cells from the plate, and 900 μL of 1N sodium hydroxide aqueous solution was added. The cells were allowed to stand at room temperature for 20 to 24 hours thereby causing cytolysis, and then the melanin content was measured at an absorbance of 475 nm."}, "[2]": {"tested_on": "Mouse melanoma cells B16F1", "assay": "Melanin production inhibition test, B16F1 cells", "format": "cell-based", "conditions": "control = 100; for Melanin production rate: α-MSH 100 ng/mL, 72 hours", "protocol": "Mouse melanoma cells B16F1 were the third or higher passage cultured in Dulbecco's Modified Eagle Medium (D-MEM) containing 10% FBS (manufactured by Nissui Pharmaceutical Co., Ltd.) mixed with 0.5% penicillin-streptomycin (manufactured by Gibco).\nas §1\n(a) Amount of Melanin Production • 960 μL of mouse cells B16F1 cultured in D-MEM culture medium containing 10% FBS was seeded on a 24-well plate to give a final concentration of 1.0×10^5 cells/well (seeding concentration: 1.04×10^5 cells/mL), and cultured for 24 hours in a CO^2 incubator. 20 μL of melanin production hormone (α-MSH) adjusted to a final concentration of 100 ng/mL (addition concentration: 5.0 μg/mL) and 20 μL of test sample adjusted to 10 μg/mL (500 μg/mL) or 100 μg/mL (5000 μg/mL) were added, and cultured for 72 hours. The culture medium was removed, washed with PBS, and then 100 μL of a trypsin EDTA solution was added thereby removing the cells from the plate, and 900 μL of 1N sodium hydroxide aqueous solution was added. The cells were allowed to stand at room temperature for 20 to 24 hours thereby causing cytolysis, and then the melanin content was measured at an absorbance of 475 nm."}}}
{"smiles": "O=c1cc(CO)occ1O", "note": "[Kojic acid]", "values": [{"measurement": "Reaction rate of tyrosinase", "setting": "tyrosinase; 10 μg/mL", "value": 42.35, "unit": "%"}, {"measurement": "Reaction rate of tyrosinase", "setting": "tyrosinase; 100 μg/mL", "value": 8.71, "unit": "%"}]}
{"smiles": "O=C1O[C@H]([C@@H](O)CO)C(O)=C1O", "note": "[Ascorbic acid]", "values": [{"measurement": "Melanin production rate after correction of survival rate", "setting": "[1]; 10 μg/mL", "value": 102.74, "unit": "%"}, {"measurement": "Melanin production rate after correction of survival rate", "setting": "[1]; 100 μg/mL", "value": 95.60, "unit": "%"}, {"measurement": "Melanin production rate", "setting": "[1]; 100 μg/mL, α-MSH 100 ng/mL, 72 hours", "value": 94.76, "unit": "%"}]}
{"smiles": "OC[C@H]1O[C@@H](Oc2ccc(O)cc2)[C@H](O)[C@@H](O)[C@@H]1O", "note": "[β arbutin]", "values": [{"measurement": "Melanin production rate after correction of survival rate", "setting": "[2]; 10 μg/mL", "value": 83.48, "unit": "%"}, {"measurement": "Melanin production rate", "setting": "[2]; 10 μg/mL", "value": 95.41, "unit": "%"}, {"measurement": "Melanin production rate after correction of survival rate", "setting": "[2]; 100 μg/mL", "value": 82.52, "unit": "%"}, {"measurement": "Melanin production rate", "setting": "[2]; 100 μg/mL", "value": 93.76, "unit": "%"}]}
